Laboratory results from ChEMBL document CHEMBL6087472, “Development and Discovery of a Selective Degrader of Casein Kinases 1 δ/ε” (J Med Chem, 2025).
Active and inactive are the calls of the source. No cut-off for these calls is given here.

Key:
[1] = molecular target: T1, von Hippel-Lindau disease tumor suppressor/Casein kinase I isoform delta (Homo sapiens, UniProt P48730+P40337); test: PROTAC activity at VHL/full length N-terminal Nano-luc fused CK1 delta (unknown origin) transfected in HEK293T cells incubated for 2 hrs followed by substrate addition by NanoBRET target engagement assay; assay type: cell-based
Target sequence in this assay (P40337 whole entry, looked up, the tested form may be a part, canonical isoform): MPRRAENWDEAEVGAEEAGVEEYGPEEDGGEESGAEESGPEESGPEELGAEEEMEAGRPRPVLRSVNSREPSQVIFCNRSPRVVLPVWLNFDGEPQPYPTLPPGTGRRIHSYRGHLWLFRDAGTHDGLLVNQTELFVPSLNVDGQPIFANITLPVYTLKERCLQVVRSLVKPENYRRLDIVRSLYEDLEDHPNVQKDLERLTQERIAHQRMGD
Target sequence in this assay (P48730 whole entry, looked up, the tested form may be a part, canonical isoform): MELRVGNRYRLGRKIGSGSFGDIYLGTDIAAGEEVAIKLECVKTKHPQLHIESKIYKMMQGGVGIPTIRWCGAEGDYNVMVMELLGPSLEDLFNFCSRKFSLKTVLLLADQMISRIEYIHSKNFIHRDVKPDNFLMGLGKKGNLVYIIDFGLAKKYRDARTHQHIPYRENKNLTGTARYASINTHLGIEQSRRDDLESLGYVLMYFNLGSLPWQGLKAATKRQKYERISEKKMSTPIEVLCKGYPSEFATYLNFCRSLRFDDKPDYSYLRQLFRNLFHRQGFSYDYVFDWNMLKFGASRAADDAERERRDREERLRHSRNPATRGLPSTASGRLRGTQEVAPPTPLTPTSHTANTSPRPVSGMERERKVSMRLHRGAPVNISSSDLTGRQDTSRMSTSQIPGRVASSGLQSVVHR

[2] = molecular target: T1, von Hippel-Lindau disease tumor suppressor/Casein kinase I isoform delta; test: PROTAC activity at VHL/Hibit-fused CK1 delta in human MV4-11 cells assessed as degradation of CK1-delta incubated for 6 hrs by Nano-Glo HiBiT assay relative to control; assay type: cell-based
Target sequence in this assay (P40337 whole entry, looked up, the tested form may be a part, canonical isoform): as the sequence (P40337 whole entry, looked up, the tested form may be a part, canonical isoform) above
Target sequence in this assay (P48730 whole entry, looked up, the tested form may be a part, canonical isoform): as the sequence (P48730 whole entry, looked up, the tested form may be a part, canonical isoform) above

[3] = molecular target: T2, von Hippel-Lindau disease tumor suppressor/Casein kinase I isoform alpha (Homo sapiens) (UniProt P48729+P40337); test: PROTAC activity at VHL/Hibit-fused CK1 alpha in human MV4-11 cells assessed as degradation of CK1-alpha incubated for 6 hrs by Nano-Glo HiBiT assay relative to control; assay type: cell-based
[4] = molecular target: T3, Casein kinase I isoform epsilon (Homo sapiens, UniProt P49674); test: Inhibition of CK1 epsilon (unknown origin)
[5] = Bioavailability in mouse; assay type: ADME, organism-based; details: in vivo
[6] = system: MV4-11; test: Cytotoxicity in human MV4-11 cells at <5 uM measured after 60 hrs by alamar blue assay; assay type: functional, cell-based
[7] = molecular target: T4, von Hippel-Lindau disease tumor suppressor/Casein kinase I isoform epsilon (Homo sapiens) (UniProt P49674+P40337); test: PROTAC activity at VHL/CK1 epsilon in HEK293 cells assessed as induction of degradation of CK1 epsilon by measuring maximum efficacy at 5 to 10 uM measured after 6 hrs by Western blot analysis relative to control; assay type: cell-based; details: dose 5-10 µM
[8] = molecular target: T2, von Hippel-Lindau disease tumor suppressor/Casein kinase I isoform alpha (Homo sapiens); test: PROTAC activity at VHL/CK1 alpha in HEK293 cells assessed as induction of degradation of CK1 alpha by measuring maximum efficacy at 5 to 10 uM measured after 6 hrs by Western blot analysis relative to control; assay type: cell-based; details: dose 5-10 µM
[9] = molecular target: T1, von Hippel-Lindau disease tumor suppressor/Casein kinase I isoform delta; test: PROTAC activity at VHL/CK1 delta in HEK293 cells assessed as induction of degradation of CK1 delta by measuring maximum efficacy at 5 to 10 uM measured after 6 hrs by Western blot analysis relative to control; assay type: cell-based; details: dose 5-10 µM
Target sequence in this assay (P40337 whole entry, looked up, the tested form may be a part, canonical isoform): as the sequence (P40337 whole entry, looked up, the tested form may be a part, canonical isoform) above
Target sequence in this assay (P48730 whole entry, looked up, the tested form may be a part, canonical isoform): as the sequence (P48730 whole entry, looked up, the tested form may be a part, canonical isoform) above

[10] = molecular target: T1, von Hippel-Lindau disease tumor suppressor/Casein kinase I isoform delta; test: PROTAC activity at VHL/Hibit-fused CK1 delta in human MV4-11 cells assessed as degradation of CK1-delta incubated for 6 hrs by Nano-Glo HiBiT assay; assay type: cell-based
[11] = molecular target: T5, Protein cereblon/Casein kinase I isoform delta (Homo sapiens, UniProt P48730+Q96SW2); test: PROTAC activity at CRBN/Hibit-fused CK1 delta in human MV4-11 cells assessed as degradation of CK1-delta incubated for 6 hrs by Nano-Glo HiBiT assay relative to control; assay type: cell-based
Target sequence in this assay (P48730 whole entry, looked up, the tested form may be a part, canonical isoform): as above
Target sequence in this assay (Q96SW2 whole entry, looked up, the tested form may be a part, canonical isoform): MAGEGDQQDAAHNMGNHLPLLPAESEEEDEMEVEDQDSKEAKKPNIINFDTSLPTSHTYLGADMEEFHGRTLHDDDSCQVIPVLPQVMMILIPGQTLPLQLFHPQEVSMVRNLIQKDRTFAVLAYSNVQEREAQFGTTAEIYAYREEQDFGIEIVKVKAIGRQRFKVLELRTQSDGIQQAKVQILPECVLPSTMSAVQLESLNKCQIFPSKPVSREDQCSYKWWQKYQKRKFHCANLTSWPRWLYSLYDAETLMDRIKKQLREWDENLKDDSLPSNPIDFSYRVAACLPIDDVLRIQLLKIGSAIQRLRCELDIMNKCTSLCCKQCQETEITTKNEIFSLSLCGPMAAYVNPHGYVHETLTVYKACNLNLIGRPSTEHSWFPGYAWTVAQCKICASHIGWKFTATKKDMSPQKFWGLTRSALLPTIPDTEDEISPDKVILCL

[12] = molecular target: T5, Protein cereblon/Casein kinase I isoform delta; test: PROTAC activity at CRBN/full length N-terminal Nano-luc fused CK1 delta (unknown origin) transfected in HEK293T cells incubated for 2 hrs followed by substrate addition by NanoBRET target engagement assay; assay type: cell-based
Target sequence in this assay (P48730 whole entry, the tested form may be a part, canonical isoform): as the sequence (P48730 whole entry, looked up, the tested form may be a part, canonical isoform) above
Target sequence in this assay (Q96SW2 whole entry, the tested form may be a part, canonical isoform): as the sequence (Q96SW2 whole entry, looked up, the tested form may be a part, canonical isoform) above

[13] = molecular target: Cereblon/Casein kinase I alpha (Homo sapiens) (UniProt P48729+Q96SW2); test: PROTAC activity at CRBN/Hibit-fused CK1 alpha in human MV4-11 cells assessed as degradation of CK1-alpha incubated for 6 hrs by Nano-Glo HiBiT assay relative to control; assay type: cell-based
[14] = molecular target: T3, Casein kinase I isoform epsilon; test: Inhibition of CK1 epsilon in HEK293 cells at 5 to 10 uM measured after 6 hrs by Western blot analysis; assay type: cell-based; details: dose 5-10 µM
[15] = molecular target: Casein kinase I isoform delta (Homo sapiens) (UniProt P48730); test: Inhibition of CK1 delta in HEK293 cells at 5 to 10 uM measured after 6 hrs by Western blot analysis; assay type: cell-based; details: dose 5-10 µM
[16] = molecular target: T5, Protein cereblon/Casein kinase I isoform delta; test: PROTAC activity at CRBN/Hibit-fused CK1 delta in human MV4-11 cells assessed as degradation of CK1-delta at 10 nM incubated for 6 hrs by Nano-Glo HiBiT assay; assay type: cell-based
Target sequence in this assay (P48730 whole entry, looked up, the tested form may be a part, canonical isoform): as the sequence (P48730 whole entry, looked up, the tested form may be a part, canonical isoform) above
Target sequence in this assay (Q96SW2 whole entry, looked up, the tested form may be a part, canonical isoform): as the sequence (Q96SW2 whole entry, looked up, the tested form may be a part, canonical isoform) above

[17] = molecular target: T4, von Hippel-Lindau disease tumor suppressor/Casein kinase I isoform epsilon (Homo sapiens); test: PROTAC activity at VHL/CK1 epsilon in HEK293 cells assessed as induction of degradation of CK1 epsilon at 0.01 to 30 uM by Western blot analysis; assay type: cell-based; details: dose 0.01-30 µM
[18] = molecular target: T1, von Hippel-Lindau disease tumor suppressor/Casein kinase I isoform delta; test: PROTAC activity at VHL/CK1 delta in HEK293 cells assessed as induction of degradation of CK1 delta by Western blot analysis; assay type: cell-based
[19] = molecular target: T4, von Hippel-Lindau disease tumor suppressor/Casein kinase I isoform epsilon (Homo sapiens); test: PROTAC activity at VHL/CK1 epsilon in HEK293 cells assessed as dephosphorylation of DVL3 at high concentration pretreated with LGK974 followed by compound addition and measured after 6 hrs by Western blot analysis; assay type: cell-based
[20] = molecular target: T1, von Hippel-Lindau disease tumor suppressor/Casein kinase I isoform delta; test: PROTAC activity at VHL/CK1 delta in HEK293 cells assessed as induction of degradation of CK1 delta at upto 20 uM pretreated with LGK974 followed by compound addition and measured after 6 hrs by Western blot analysis; assay type: cell-based
Target sequence in this assay (P40337 whole entry, looked up, the tested form may be a part, canonical isoform): as the sequence (P40337 whole entry, looked up, the tested form may be a part, canonical isoform) above
Target sequence in this assay (P48730 whole entry, looked up, the tested form may be a part, canonical isoform): as the sequence (P48730 whole entry, looked up, the tested form may be a part, canonical isoform) above

[21] = system: MV4-11; test: Cytotoxicity in human MV4-11 cells at 10 uM measured after 72 hrs by alamar blue assay; assay type: functional, cell-based
[22] = molecular target: T2, von Hippel-Lindau disease tumor suppressor/Casein kinase I isoform alpha (Homo sapiens); test: PROTAC activity at VHL/CK1 alpha in HEK293 cells assessed as induction of degradation of CK1 alpha at >10 uM by Western blot analysis; assay type: cell-based
[23] = molecular target: T1, von Hippel-Lindau disease tumor suppressor/Casein kinase I isoform delta; test: PROTAC activity at VHL/CK1 delta in HEK293 cells assessed as dephosphorylation of DVL3 at high concentration pretreated with LGK974 followed by compound addition and measured after 6 hrs by Western blot analysis; assay type: cell-based
Target sequence in this assay (P40337 whole entry, looked up, the tested form may be a part, canonical isoform): as the sequence (P40337 whole entry, looked up, the tested form may be a part, canonical isoform) above
Target sequence in this assay (P48730 whole entry, looked up, the tested form may be a part, canonical isoform): as the sequence (P48730 whole entry, looked up, the tested form may be a part, canonical isoform) above

[24] = molecular target: T4, von Hippel-Lindau disease tumor suppressor/Casein kinase I isoform epsilon (Homo sapiens); test: PROTAC activity at VHL/CK1 epsilon in HEK293 cells assessed as induction of degradation of CK1 epsilon at upto 20 uM pretreated with LGK974 followed by compound addition and measured after 6 hrs by Western blot analysis; assay type: cell-based

Sequence of Cereblon/Casein kinase I alpha (Homo sapiens) (P48729 2-337 limits assumed): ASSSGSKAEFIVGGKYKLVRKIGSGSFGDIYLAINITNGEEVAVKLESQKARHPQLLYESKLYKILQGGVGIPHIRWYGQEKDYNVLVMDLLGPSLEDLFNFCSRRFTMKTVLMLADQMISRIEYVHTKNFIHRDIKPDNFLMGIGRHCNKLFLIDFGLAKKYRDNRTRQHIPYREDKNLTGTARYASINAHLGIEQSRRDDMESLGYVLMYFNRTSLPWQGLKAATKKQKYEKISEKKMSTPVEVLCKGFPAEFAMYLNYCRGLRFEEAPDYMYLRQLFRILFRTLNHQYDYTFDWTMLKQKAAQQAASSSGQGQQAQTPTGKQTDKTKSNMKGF
Sequence of Cereblon/Casein kinase I alpha (Homo sapiens) (Q96SW2 whole entry partner, the tested form may be a part, canonical isoform): as the sequence (Q96SW2 whole entry, looked up, the tested form may be a part, canonical isoform) above
T2 sequence (P40337 whole entry, looked up, the tested form may be a part, canonical isoform): as the sequence (P40337 whole entry, looked up, the tested form may be a part, canonical isoform) above
T2 sequence (P48729 whole entry, looked up, the tested form may be a part, canonical isoform): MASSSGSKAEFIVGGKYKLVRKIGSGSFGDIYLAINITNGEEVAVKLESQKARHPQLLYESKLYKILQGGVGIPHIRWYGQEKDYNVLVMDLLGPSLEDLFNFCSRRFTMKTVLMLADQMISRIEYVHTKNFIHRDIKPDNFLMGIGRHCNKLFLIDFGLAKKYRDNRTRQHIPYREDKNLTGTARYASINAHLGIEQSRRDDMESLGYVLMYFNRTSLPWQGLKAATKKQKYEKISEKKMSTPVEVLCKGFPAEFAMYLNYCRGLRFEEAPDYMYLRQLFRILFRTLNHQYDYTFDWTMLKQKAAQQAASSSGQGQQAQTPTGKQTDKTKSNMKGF
T4 sequence (P40337 whole entry, looked up, canonical isoform): as the sequence (P40337 whole entry, looked up, the tested form may be a part, canonical isoform) above
T4 sequence (P49674 whole entry, looked up, canonical isoform): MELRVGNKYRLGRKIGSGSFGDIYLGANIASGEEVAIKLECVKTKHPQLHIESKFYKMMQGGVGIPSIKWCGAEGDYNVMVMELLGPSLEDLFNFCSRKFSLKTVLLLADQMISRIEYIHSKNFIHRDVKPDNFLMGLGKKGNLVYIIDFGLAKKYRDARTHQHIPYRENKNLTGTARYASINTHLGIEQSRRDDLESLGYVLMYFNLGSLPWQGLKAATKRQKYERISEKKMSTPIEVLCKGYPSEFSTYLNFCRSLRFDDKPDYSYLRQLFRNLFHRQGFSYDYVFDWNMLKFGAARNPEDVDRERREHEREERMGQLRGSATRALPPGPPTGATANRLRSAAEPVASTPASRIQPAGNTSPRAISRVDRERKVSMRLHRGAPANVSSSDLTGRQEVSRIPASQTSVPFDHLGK

Row | SMILES | Emax [1] [%] | Emax [2] [%] | Emax [3] [%] | Emax [11] [%] | EC50 [12] [nM] | Emax [13] [%] | other results
1 | Cc1ncsc1-c1ccc(CNC(=O)[C@@H]2C[C@@H](O)CN2C(=O)[C@@H](NC(=O)CC2CCN(C(=O)CN3CCC(F)(Cn4cnc(-c5ccc(F)cn5)c4-c4ccnc5[nH]ccc45)CC3)CC2)C(C)(C)C)cc1 | 2 | 29.1 | < 10 | – | – | – | –
2 | CN1CCC(F)(Cn2cnc(-c3ccc(F)cn3)c2-c2ccnc3[nH]ccc23)CC1 | – | – | – | – | – | – | IC50 [4]: 27.7 nM; bioavailability [5]: 0.57%; Activity [6]: Active
3 | Cc1ncsc1-c1ccc(CNC(=O)[C@@H]2C[C@@H](O)CN2C(=O)[C@@H](NC(=O)CCOCCOCCN2CCC(F)(Cn3cnc(-c4ccc(F)cn4)c3-c3ccnc4[nH]ccc34)CC2)C(C)(C)C)cc1 | 1.8 | 50.8 | 17.3 | – | – | – | Emax [7]: > 50%; Emax [8]: > 50%; Emax [9]: > 50%; DC50 [10]: 9270 nM
4 | Cc1ncsc1-c1ccc(CNC(=O)[C@@H]2C[C@@H](O)CN2C(=O)[C@@H](NC(=O)CC2CN(C(=O)CCOCCOCCN3CCC(F)(Cn4cnc(-c5ccc(F)cn5)c4-c4ccnc5[nH]ccc45)CC3)C2)C(C)(C)C)cc1 | 6.3 | < 10 | < 10 | – | – | – | –
5 | Cc1ncsc1-c1ccc(CNC(=O)[C@@H]2C[C@@H](O)CN2C(=O)[C@@H](NC(=O)CC2CN(C(=O)CN3CCC(F)(Cn4cnc(-c5ccc(F)cn5)c4-c4ccnc5[nH]ccc45)CC3)C2)C(C)(C)C)cc1 | 2.4 | 21.7 | < 10 | – | – | – | –
6 | Cc1ncsc1-c1ccc(CNC(=O)[C@@H]2C[C@@H](O)CN2C(=O)[C@@H](NC(=O)Cc2ccc(CNC(=O)CN3CCC(F)(Cn4cnc(-c5ccc(F)cn5)c4-c4ccnc5[nH]ccc45)CC3)cc2)C(C)(C)C)cc1 | 0.5 | 19.1 | < 10 | – | – | – | –
7 | O=C1CCC(N2C(=O)c3cccc(NCCOCCOCCOCCC(=O)N4CCC(F)(Cn5cnc(-c6ccc(F)cn6)c5-c5ccnc6[nH]ccc56)CC4)c3C2=O)C(=O)N1 (stereo unspecified) | – | – | – | 34.4 | 467 | 16.1 | –
8 | O=C1CCC(N2C(=O)c3cccc(OCCCCCCN4CCC(F)(Cn5cnc(-c6ccc(F)cn6)c5-c5ccnc6[nH]ccc56)CC4)c3C2=O)C(=O)N1 (stereo unspecified) | – | – | – | 15 | 1.5 | – | inhibition [14]: Active; inhibition [15]: Active
9 | O=C(CCOCCOCCOCCN1CCC(F)(Cn2cnc(-c3ccc(F)cn3)c2-c2ccnc3[nH]ccc23)CC1)NCCNc1cccc2c1C(=O)N(C1CCC(=O)NC1=O)C2=O (stereo unspecified) | – | – | – | 36 | 7.7 | 20.2 | Activity [16]: Active
10 | Cc1ncsc1-c1ccc(CNC(=O)[C@@H]2C[C@@H](O)CN2C(=O)[C@@H](NC(=O)CC2CCN(C(=O)CCOCCOCCOCCN3CCC(F)(Cn4cnc(-c5ccc(F)cn5)c4-c4ccnc5[nH]ccc45)CC3)CC2)C(C)(C)C)cc1 | 3.2 | < 10 | < 10 | – | – | – | –
11 | Cc1ncsc1-c1ccc(CNC(=O)[C@@H]2C[C@@H](O)CN2C(=O)[C@@H](NC(=O)CCOCCOCCOCCN2CCC(F)(Cn3cnc(-c4ccc(F)cn4)c3-c3ccnc4[nH]ccc34)CC2)C(C)(C)C)cc1 | 4.3 | 35 | 35.9 | – | – | – | Activity [6]: Active
12 | O=C(COc1cccc2c1C(=O)N(C1CCC(=O)NC1=O)C2=O)NCCCCCC(=O)N1CCC(F)(Cn2cnc(-c3ccc(F)cn3)c2-c2ccnc3[nH]ccc23)CC1 (stereo unspecified) | – | – | – | 18.2 | 9.3 | < 10 | –
13 | Cc1ncsc1-c1ccc(CNC(=O)[C@@H]2C[C@@H](O)CN2C(=O)[C@@H](NC(=O)CC2CN(C(=O)CCOCCOCCOCCN3CCC(F)(Cn4cnc(-c5ccc(F)cn5)c4-c4ccnc5[nH]ccc45)CC3)C2)C(C)(C)C)cc1 | 6.4 | < 10 | < 10 | – | – | – | –
14 | Cc1ncsc1-c1ccc(CNC(=O)[C@@H]2C[C@H](O)CN2C(=O)[C@@H](NC(=O)CCCCCCC(=O)N2CCC(F)(Cn3cnc(-c4ccc(F)cn4)c3-c3ccnc4[nH]ccc34)CC2)C(C)(C)C)cc1 | 2.4 | < 10 | < 10 | – | – | – | Activity [17]: Weak_effect; DC50 [18]: 200 nM; Activity [19]: Active; Activity [20]: inactive; Activity [21]: Active; Compound Showed Milder Cytotoxic Effect; Activity [22]: Weak_effect; Activity [23]: Active; Activity [24]: inactive
15 | O=C(COc1cccc2c1C(=O)N(C1CCC(=O)NC1=O)C2=O)NCc1ccc(CC(=O)N2CCC(F)(Cn3cnc(-c4ccc(F)cn4)c3-c3ccnc4[nH]ccc34)CC2)cc1 (stereo unspecified) | – | – | – | 14.8 | 4.6 | 19.7 | –
16 | O=C1CCC(N2C(=O)c3cccc(NCCCCCC(=O)N4CCC(F)(Cn5cnc(-c6ccc(F)cn6)c5-c5ccnc6[nH]ccc56)CC4)c3C2=O)C(=O)N1 (stereo unspecified) | – | – | – | 35 | 4.3 | < 10 | Activity [16]: Active
17 | O=C1CCC(N2C(=O)c3cccc(NCc4ccc(CC(=O)N5CCC(F)(Cn6cnc(-c7ccc(F)cn7)c6-c6ccnc7[nH]ccc67)CC5)cc4)c3C2=O)C(=O)N1 (stereo unspecified) | – | – | – | 14.4 | 9.2 | < 10 | –
18 | Cc1ncsc1-c1ccc(CNC(=O)[C@@H]2C[C@@H](O)CN2C(=O)[C@@H](NC(=O)CCOCCOCCOCCOCCN2CCC(F)(Cn3cnc(-c4ccc(F)cn4)c3-c3ccnc4[nH]ccc34)CC2)C(C)(C)C)cc1 | 2.8 | < 10 | < 10 | – | – | – | –
19 | O=C(CCOCCOCCOCCOCCN1CCC(F)(Cn2cnc(-c3ccc(F)cn3)c2-c2ccnc3[nH]ccc23)CC1)NCCNc1cccc2c1C(=O)N(C1CCC(=O)NC1=O)C2=O (stereo unspecified) | – | – | – | 40.2 | 11.2 | 11.3 | Activity [16]: Active
20 | O=C(COc1cccc2c1C(=O)N(C1CCC(=O)NC1=O)C2=O)NCCOCCOCCOCCC(=O)N1CCC(F)(Cn2cnc(-c3ccc(F)cn3)c2-c2ccnc3[nH]ccc23)CC1 (stereo unspecified) | – | – | – | < 10 | 16 | 12.6 | –
21 | O=C(CCOCCOCCN1CCC(F)(Cn2cnc(-c3ccc(F)cn3)c2-c2ccnc3[nH]ccc23)CC1)NCCNc1cccc2c1C(=O)N(C1CCC(=O)NC1=O)C2=O (stereo unspecified) | – | – | – | 36.4 | 9.3 | 25 | Activity [16]: Active
